Results on one sequence are retold here after US9139615B2, “High-affinity, dimeric inhibitors of PSD-95 as efficient neuroprotectants against ischemic brain damage and for treatment of pain” (University of Copenhagen, priority 2011, dated 2015).

Data set [1] in a line: Physiological status of pMCAO mice (blood values, body weight, temperature, survival). Format: in vivo. The conditions noted are these: mouse, in vivo. The procedure: The physiological status of the mice was carefully monitored prior to and during pMCAO surgery in order to exclude the observed effects of treatment with dimeric PSD-95 inhibitors being due to secondary conditions (e.g. disease-related) resulting from the experimental procedure.
9.10 Body weight monitoring: The body weight of each mouse was registered during pre-training, before surgery, and at 24 and 48 hours after surgery and no differences were seen between the treatment groups (FIG. 13).
9.11 Temperature monitoring: The rectal temperature of the mouse was continuously measured using a thermocoupled probe connected to a Model Bat 12 unit (Physitemp). The temperature was measured prior to and 30 min after pMCAO in addition to 30 min and 2.5 hours after i.v. injection, i.e. 1 and 3 hours after pMCAO.
9.12 Blood gas analysis: One samples of venous blood was taken for blood gas analysis of PO2/PCO2 electrolytes, glucose, lactate, and hematocrit, 30 min after compound administration (1 hour after pMCAO). A capillary heparin coated tube was inserted along the inner corner of eye and turned until it penetrated the conjunctiva. A sample of blood (150 μl) was collected and stored on ice until gas analysis using the GEM Premier 300 blood gas instrument (Instrumentation Laboratory) Quality controls (QC ContrlIL9) were purchased from IL Sensor Systems. Also, no differences were detected in blood gas parameters (PO2/PCO2, pH, electrolytes, glu/lac), which were similar between the groups and within normal range, when compared to unmanipulated control mice (Table 4).

Data set [2] in a line: Human blood plasma stability assay. Format: in vitro ADME. The conditions noted are these: human, plasma; 0.25 mM, 37° C., in vitro; read-out: half-life (T1/2) in human blood plasma. The protocol: Ligands (dimeric PSD-95 inhibitors) for the PDZ domain of PSD-95 were dissolved in human blood plasma (270 μL; 3H Biomedical, Sweden, cat no 1300-1-P50) to a concentration of 0.25 mM (30 μL, of 2.5 mM) and incubated at 37° C. Aliquots (30 μL) were removed at various time intervals (e.g. 0, 5, 10, 20, 40, 80, 160, 320, 960, 1280, 2550, 4560 and 7240 min) and quenched with 60 μL, trichloroacetic acid (aq., 5%). The aliquots were vortexed, and incubated 15 min, at 4° C. prior to centrifugation at 18,000 g for 2 min. The supernatants were analyzed by analytical RP-HPLC (UV218) to quantify compound relative to time zero, and also evaluated qualitatively by ESI-LC/MS in order to identify the compound (m/z) in the sample. Procaine (positive control) and procainamide (negative control) were investigated at 50 μM to validate the procedure. Ligand recoveries following the precipitation procedure were between 85-95%.

Data set [3] is described as follows: Blood-brain barrier permeability of fluorescent analogues. Format: in vivo, mice. The conditions noted are these: mouse, in vivo, iv. The protocol:
VI.ii. Blood-brain Barrier Permeability. […] After injection of the compounds, the mice are perfused with paraformaldehyde and the brains are carefully removed, post-fixed in paraformaldehyde, processed into coronal sections, and quantified for fluorescence (Example 8).
The fluorescent ligands were injected intravenously (3 nmol/g) and the location of the ligands was detected by fluorescence microscopy of coronal brain slices (n=8) mice, was evaluated 2 hours after injection. Two sections of the brain, prior to and two after the anterior commissure (n=5), were selected for BBB permeability analysis. The anterior commissure (Bregma: −0.3) was used as a fix point in the brain in order to analyse anatomically identical brain sections. The intensity of the 5-FAM fluorophore was measured semi-quantitatively using a fluorescence microscopy system (Olympus System Microscope model BX-51, Denmark) with a 10× objective (Olympus 10×/0.15 UPlanApo) connected to a high-resolution microscope digital camera (Olympus model DP70), which transferred images to an image-capturing software (Image Pro Plus software). All images were taken using the same microscope settings and with constant camera exposure time. Intensities were quantified using the ImageJ software.
5-FAM-labeled derivative of Tat-NR2B9c is designated MS23. After injection of the compounds, the mice are perfused with paraformaldehyde and the brains are carefully removed, post-fixed in paraformaldehyde, processed into coronal sections, and quantified for fluorescence.
C57BL/6 mice with 6 hour post-surgical survival time were euthanized by cervical dislocation. C57BL/6 mice with 48 hour post-surgical survival were anesthetized with an overdosed of pentobarbital (the pharmacy of the Faculty of Life Sciences, University of Copenhagen, Denmark) in order to collect blood and tissue samples. All brains were carefully removed, frozen in gaseous CO2 and cut into 6 series of 30 μm coronal cryostat sections and stored at −80° C. until further use. C57BL/6J mice used to investigate the blood-brain barrier (BBB) permeability of AB143, AB145, AB148, and MS23 were deeply anesthetized and perfused through the left ventricle, using 10 ml chilled Soerensens phosphate buffer (SB) ([…], 125 mM Na2HPO4, pH 7.4) followed by 20 mL SB containing 4% paraformaldehyde (PFA). The brains were carefully removed and post-fixed in 4% PFA for 1 hour followed by immersion in SB containing 20% sucrose over night. The brains were frozen on gaseous CO2 and processed into 16 μm coronal cryostat sections.

Where no end group is shown, it is not given here.

For the sequence “YGRKKRRQRRRKLSSIESDV [Tat-NR2B9c, reference compound]”, in data set [1], the Hct is 40.8 ± 0.6%, the “[Ca2+]” value was 1.32 ± 0.01 mmol/L, the “[K+]” value was 5.1 ± 0.13 mmol/L and the “[Lactate]” value is recorded as 0.87 ± 0.07 mmol/L. Besides, in data set [1], the “[Na+]” value amounted to 147 ± 0.3 mmol/L, the pCO2 came to 106 ± 2.4 mmHg and the pO2 is given as 55.2 ± 2.6 mmHg. Also, in data set [2], the half-life at 0.25 mM amounted to 1100 ± 300 min. Also, the “entry into brain, fluorescence microscopy of coronal brain slices” value in data set [3] is given as “enter the brain”.
